Here are results for one molecule from patent US12527782B2, “Use of hexokinase 2/mitochondria-detaching compounds for treating hexokinase-2 (HK2)-expressing cancers” (Vidac Pharma Ltd., priority 2016, dated 2026).

SMILES strings stand for the structures. Entries after “also recorded” stand apart in the source; their conditions may differ.

The subject of series [1] is Colon CXF 280. The series can be described thus: CFA, CXF 280. It counts as cell-based, human. Conditions: PDX/CFA. The procedure:
(§1) CFA was performed by Charles River Laboratories (Freiburg, Germany) in 96-well plate format according to a modified two-layer soft agar assay. The origin of the tumor xenografts has been described (Fiebig et al. 1989, incorporated herein by reference). The list of tumors used in this study is detailed in Table 1.

Series [2] has as its system Colon CXF 243. The series can be described thus: Colony forming assay (CFA), CXF 243. Conditions: PDX/CFA. It counts as cell-based, human. On the procedure:
as §1

Series [3] has as its target T1, HK1 (Homo sapiens, UniProt P19367).
T1 construct: host or cells: E. coli
In words: HK catalytic activity coupled enzymatic assay, HK1. Conditions: as a function of ATP or glucose; absence or presence of Formula C. It counts as biochemical. Also on record: dose or concentration left out as unconfirmed. On the procedure: (§2) A431 (human skin SCC), HT-297.T (human AK), and HaCaT transformed normal keratinocyte cell lines were from ATCC (Manassas, VA) and were maintained in DMEM supplemented with 10% FCS, 4 mM L-Gln, 1 mM sodium pyruvate, 100 U/mL penicillin, 1 μg/mL streptomycin. Human HK1 and HK2 plasmids were purchased from Addgene (Cambridge, MA) and were purified from E. Coli. VDAC1 was purified from sheep liver mitochondria as described (Arbel et al. 2012, incorporated herein by reference). Human skin tissue microarray (SK208 and SK 805) were purchased from US Biomax Inc. (Rockville, MD).
(§3) Hexokinase catalytic activity was determined by the coupled enzymatic assay in which hexokinase catalyzes the conversion of glucose to G6P, which is then oxidized by glucose-6-phosphate dehydrogenase (G6PDH) in the presence of NADP to form 6-Phospho-D-Gluconate and NADPH. NADPH production results in a colorimetric signal at 340 nm, which is proportional to the hexokinase catalytic activity. The readings were recorded in an ELISA plate reader Infinite 200 ELISA reader (Tecan, Männedorf, Switzerland).

Series [4] is described as follows: AK/cSCC mouse model of chronic UVB exposure: local and general tolerability. It counts as in vivo. The settings on record: UVB-exposed SKH-1 mice, Day 1 through Day 50. On the procedure: The formulation ingredients for vehicle, 2.5%, and 5% Formula C ointment consisted of: 32% Gelucire44/14® (Gattefosse, Saint-Priest, France), and 68% combined Labrasol® (Gattefosse, Saint-Priest, France) with corresponding amount of Formula C (w/w). New ointments were prepared every 2 weeks. The 40% topical solution was prepared just prior to use by mixing (w/w) 60% propylene glycol (Sigma, St. Louis, MO, USA) with 40% Formula C.
The effect of Formula C on cell proliferation and apoptosis was tested in an AK/cSCC mouse model of chronic UVB exposure. Forty-eight SKH-1 hairless female mice were chronically exposed to UVB radiation for 16 weeks. By that time, more than 60% of the animals had developed at least one SCC lesion. Three days after the final irradiation dose, the mice were randomly assigned to 1 of 4 treatment groups (N=12 mice/group) and a 50-day treatment phase started. Treatment groups included: vehicle, 2.5% or 5% Formula C ointment applied once-daily for 50 days, or 40% Formula C topical solution applied once-daily for the first 5 days of every three-week cycle (total of three treatment cycles).

For series [5], the system named is Pancreas PAXF 736. In words: CFA, PAXF 736. It counts as cell-based, human. The settings on record: PDX/CFA. On the procedure:
as §1

Series [6] addresses T2, HK2 (Homo sapiens, UniProt P52789).
T2 construct: host or cells: E. coli
The series can be described thus: HK catalytic activity coupled enzymatic assay, HK2. It counts as biochemical. Conditions: as a function of ATP or glucose; absence or presence of 10 M Formula C. On the procedure:
as §2, §3

Series [7] is described as follows: Phase 2a in subjects with actinic keratosis, pharmacokinetics. It counts as in vivo, human. Conditions: subjects with AK; topical application. On the procedure:
(§4) The Phase 2 clinical trial was a multiple-center randomized, double-blind, placebo-controlled, parallel-cohorts study to evaluate the efficacy, safety, tolerability, and pharmacokinetics of once-daily application of topical Formula C ointment (QD 200 mg) for 28 days in subjects with actinic keratosis. Subjects were followed for one or two months after they completed treatment (through day 56 or day 84). The primary and exploratory efficacy endpoints for the study were reduction in the number of lesions on days 56 and 84, respectively. Subjects were randomly assigned in a double-blind fashion to one of three parallel treatment cohorts (5%, or 10% Formula C, or placebo) at a ratio of 1:1:1. To qualify for the study, subjects aged 18 (inclusive) or older must have had 4-8 discrete Grade 1 or 2 AK lesions within a 25-centimeter squared area of the skin of their scalp or face. The study enrolled 93 subjects in the US and Israel.

Series [8] has as its system Leukemia (BCLL) LEXFCM JURL-MK1. In words: CFA, LEXFCM JURL-MK1. The settings on record: Cell line/CFA. It counts as cell-based, human. On the procedure:
as §1

For series [9], the system named is Lung (NSCLC, adeno) LXFA 1041. In words: CFA, LXFA 1041. It counts as cell-based, human. The settings on record: PDX/CFA. On the procedure: as §1
Series [10] relates to AK lesions. The series can be described thus: Phase 2a in subjects with actinic keratosis, efficacy (lesion count). Format: in vivo, human. On the procedure: as §4
Series [11] relates to Lung (NSCLC, large) LXFL 1072. In words: CFA, LXFL 1072. It counts as cell-based, human. The settings on record: PDX/CFA. The procedure:
as §1

The test system of series [12] is Lymphoma (Non-Hodgkin) LYXFNH RAJI. In words: CFA, LYXFNH RAJI. Conditions: Cell line/CFA. It counts as cell-based, human. On the procedure:
as §1

The test system of series [13] is Leukemia (AML) LEXFAM OCI-AML2. The series can be described thus: CFA, LEXFAM OCI-AML2. Conditions: Cell line/CFA. Format: cell-based, human. On the procedure:
as §1

T1 sequence (P19367 whole entry): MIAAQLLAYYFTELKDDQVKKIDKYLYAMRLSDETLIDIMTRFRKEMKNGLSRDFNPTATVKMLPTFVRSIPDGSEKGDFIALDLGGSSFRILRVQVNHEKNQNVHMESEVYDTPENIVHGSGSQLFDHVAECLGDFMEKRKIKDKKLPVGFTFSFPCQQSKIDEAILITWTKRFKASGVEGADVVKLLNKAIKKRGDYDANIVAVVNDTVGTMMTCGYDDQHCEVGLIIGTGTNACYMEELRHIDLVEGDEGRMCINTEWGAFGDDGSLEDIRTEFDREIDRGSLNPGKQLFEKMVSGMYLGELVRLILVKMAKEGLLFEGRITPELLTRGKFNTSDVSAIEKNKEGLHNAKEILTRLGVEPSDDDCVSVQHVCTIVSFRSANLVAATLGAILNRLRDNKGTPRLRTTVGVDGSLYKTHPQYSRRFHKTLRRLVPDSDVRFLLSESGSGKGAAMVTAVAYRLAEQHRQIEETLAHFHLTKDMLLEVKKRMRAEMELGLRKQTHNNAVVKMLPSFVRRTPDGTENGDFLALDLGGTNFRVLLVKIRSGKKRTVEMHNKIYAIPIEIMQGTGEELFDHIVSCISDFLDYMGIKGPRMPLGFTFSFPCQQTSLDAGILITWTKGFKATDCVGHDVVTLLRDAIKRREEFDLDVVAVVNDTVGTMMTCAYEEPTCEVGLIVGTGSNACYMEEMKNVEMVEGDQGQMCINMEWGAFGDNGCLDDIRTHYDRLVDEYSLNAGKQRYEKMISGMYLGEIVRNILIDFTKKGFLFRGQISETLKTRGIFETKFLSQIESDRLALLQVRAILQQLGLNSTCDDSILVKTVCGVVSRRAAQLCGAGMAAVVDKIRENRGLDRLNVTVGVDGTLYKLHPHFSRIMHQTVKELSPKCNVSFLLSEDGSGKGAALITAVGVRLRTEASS
T2 sequence (P52789 whole entry): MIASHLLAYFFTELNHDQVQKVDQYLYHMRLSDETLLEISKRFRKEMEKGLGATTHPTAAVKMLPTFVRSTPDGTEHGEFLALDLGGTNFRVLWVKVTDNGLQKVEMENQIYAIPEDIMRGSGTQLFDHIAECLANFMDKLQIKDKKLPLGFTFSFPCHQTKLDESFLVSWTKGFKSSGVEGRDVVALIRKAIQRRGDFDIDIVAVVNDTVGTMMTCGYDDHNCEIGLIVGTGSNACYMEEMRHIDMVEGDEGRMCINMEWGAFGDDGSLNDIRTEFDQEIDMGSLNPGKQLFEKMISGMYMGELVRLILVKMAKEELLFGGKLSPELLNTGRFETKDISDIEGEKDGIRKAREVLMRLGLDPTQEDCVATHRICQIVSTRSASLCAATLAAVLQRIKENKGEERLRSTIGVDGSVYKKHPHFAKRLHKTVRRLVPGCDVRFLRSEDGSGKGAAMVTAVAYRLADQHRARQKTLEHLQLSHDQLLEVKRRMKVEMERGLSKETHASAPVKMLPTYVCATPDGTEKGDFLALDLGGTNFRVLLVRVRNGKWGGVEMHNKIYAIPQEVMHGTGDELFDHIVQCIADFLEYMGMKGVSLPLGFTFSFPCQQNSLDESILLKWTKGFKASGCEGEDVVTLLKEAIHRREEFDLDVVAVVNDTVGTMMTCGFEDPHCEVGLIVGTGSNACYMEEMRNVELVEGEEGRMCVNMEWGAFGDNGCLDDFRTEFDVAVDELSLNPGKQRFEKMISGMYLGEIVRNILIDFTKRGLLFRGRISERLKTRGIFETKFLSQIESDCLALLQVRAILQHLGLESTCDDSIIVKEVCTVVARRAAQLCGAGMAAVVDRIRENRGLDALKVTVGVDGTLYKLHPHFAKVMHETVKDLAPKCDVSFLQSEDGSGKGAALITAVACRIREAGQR

Regarding `CC/C=C\CC1C(=O)CCC1CC(=O)Oc1cccc2cccnc12` (stereo not shown) [Formula C], the IC50 (in general, the midpoint of a concentration-inhibition curve) in series [1] was found to be 5.44 µM; in [2], 1.76 µM; in [5] it was 1.74 µM; in series [8], 1.67 µM; in series [9], 1.5 µM; in series [11] it was 1.57 µM. Moreover, the results for the concentration for half-maximal inhibition (IC50) in series [12] and in series [13] were 1.38 µM and 0.985 µM, respectively. Moreover, the HK1 catalytic activity result in series [3] is recorded as “does not affect; also recorded: did not affect the catalytic activity”. For the same molecule, the “adverse local skin reactions” value in [4] (2.5%, 5% ointment or 40% topical solution) is “no adverse local skin reactions of any kind”. In addition, the body weight abnormalities entry in series [4] is reported as “no abnormalities in body weight”. In series [4], the clinical signs entry is recorded as “no clinical signs”. Further, in [4], the erythema or edema entry was “no erythema or edema”. In addition, the HK2 catalytic activity result in series [6] is “does not affect; also recorded: did not affect the catalytic activity”. Further, the “systemic exposure of VDA-1102 or its major metabolite” value in [7] is on record as “No systemic exposure”. Further, the “mean reduction in total lesion count from baseline on Day 56” value in series [10] (ITT-face subgroup, 10% ointment, adjusted to age and gender, P=0.023 vs Placebo) is listed as 38.8%±36.4%; in series [10] (full ITT population (face or scalp), 10% ointment QD 200 mg 28 days, adjusted by site, age, gender, treatment field location), 32.1%±34.1%. For the same molecule, the “median reduction in total lesion count” value in series [10] (PP-face subgroup, 10% ointment) amounted to 50.0%. Besides, the “median reduction in total lesion count from baseline on Day 56” value in series [10] (full Per Protocol (PP) population, 10% ointment) is on record as 25.0%.
